Assay results taken from ChEMBL document CHEMBL1201862, “PubChem BioAssay data set” (2004).
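Briefly, cells in 96-well plates were exposed to five compound concentrations for 48 h, and endpoints were estimated by linear interpolation. GI50 = concentration required for 50% inhibition of growth.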 Activity calls are given as the source filed them. Cut-off read from the data, not from the text of the source: active = GI50 up to about 1.1 µM and inactive = higher.

Columns and labels:
Assay in all cases: DTP human tumour cell line panel, 48 h
[1] = tested on: SNB-75
[2] = tested on: Hs-578T
[3] = tested on: MOLT-4
[4] = tested on: SW-620
[5] = tested on: RXF 393
[6] = tested on: KM12
[7] = tested on: OVCAR-8
[8] = tested on: HOP-62
[9] = tested on: NCI-H522
[10] = tested on: NCI-H460
[11] = tested on: UACC-257
[12] = tested on: HT-29
[13] = tested on: SNB-19
[14] = tested on: UO-31
[15] = tested on: SN12C
[16] = tested on: HL-60
[17] = tested on: 786-0
[18] = tested on: HOP-92
[19] = tested on: SK-OV-3
[20] = tested on: SR

SMILES | GI50 [1] | GI50 [2] | GI50 [3] | GI50 [4] | GI50 [5] | GI50 [6] | GI50 [7] | GI50 [8] | GI50 [9] | GI50 [10] | GI50 [11] | GI50 [12] | GI50 [13] | GI50 [14] | GI50 [15] | GI50 [16] | GI50 [17] | GI50 [18] | GI50 [19] | GI50 [20]
CC(C)Cc1cc2c(cc1O)CCC1C2CC[C@@]2(C)C1CC[C@@H]2O (stereo not given in full) | 5.68 µM (inactive) | 6.19 µM (inactive) | 3.5 µM (inactive) | 8.65 µM (inactive) | 4.35 µM (inactive) | 6.55 µM (inactive) | 6.35 µM (inactive) | 11.6 µM (inactive) | 6.25 µM (inactive) | 10.5 µM (inactive) | 14.3 µM (inactive) | 8.02 µM (inactive) | 7.46 µM (inactive) | 4.05 µM (inactive) | 7.74 µM (inactive) | 1.94 µM (inactive) | 8.13 µM (inactive) | 10.2 µM (inactive) | 8.17 µM (inactive) | 3.85 µM (inactive)
CCOC(=O)C(Cc1ccc(O)cc1)Nc1nc(=O)c2c(=O)oc(Cl)cc2o1 (stereo not given) | 4.91 µM (inactive) | 3.07 µM (inactive) | 2.81 µM (inactive) | 3.18 µM (inactive) | 4.38 µM (inactive) | 10.2 µM (inactive) | 3.39 µM (inactive) | 12.5 µM (inactive) | 4.13 µM (inactive) | 16.4 µM (inactive) | 8 µM (inactive) | 3.52 µM (inactive) | 10.8 µM (inactive) | 10.9 µM (inactive) | 6.28 µM (inactive) | 2.84 µM (inactive) | 9.12 µM (inactive) | 7.31 µM (inactive) | 14.4 µM (inactive) | 2.7 µM (inactive)
CC1=C2C(=O)c3ccccc3C(=O)[C@H]2[C@H]2CCO[C@H]2O1 | 19.8 µM (inactive) | 41.7 µM (inactive) | 30.5 µM (inactive) | 21.1 µM (inactive) | 14.4 µM (inactive) | 24.5 µM (inactive) | 20.4 µM (inactive) | 21.3 µM (inactive) | 16.3 µM (inactive) | 21 µM (inactive) | 18.5 µM (inactive) | 31.2 µM (inactive) | 37 µM (inactive) | 18.1 µM (inactive) | 20.9 µM (inactive) | 27.7 µM (inactive) | 18.5 µM (inactive) | 20 µM (inactive) | 50.4 µM (inactive) | 35.2 µM (inactive)
CNC1Cc2c[nH]c3cccc(c23)C12C=C(C)C(=O)O2 (stereo not given) | > 100 µM (inactive) | > 100 µM (inactive) | > 100 µM (inactive) | > 100 µM (inactive) | > 100 µM (inactive) | > 100 µM (inactive) | > 100 µM (inactive) | > 100 µM (inactive) | > 100 µM (inactive) | > 100 µM (inactive) | > 100 µM (inactive) | > 100 µM (inactive) | > 100 µM (inactive) | > 100 µM (inactive) | > 100 µM (inactive) | > 100 µM (inactive) | > 100 µM (inactive) | > 100 µM (inactive) | > 100 µM (inactive) | 88.5 µM (inactive)
COC(C)(C)C1=CCC(C)CC1 (stereo not given) | 66.1 µM (inactive) | > 100 µM (inactive) | 30 µM (inactive) | > 100 µM (inactive) | > 100 µM (inactive) | > 100 µM (inactive) | > 100 µM (inactive) | > 100 µM (inactive) | > 100 µM (inactive) | > 100 µM (inactive) | > 100 µM (inactive) | > 100 µM (inactive) | > 100 µM (inactive) | > 100 µM (inactive) | > 100 µM (inactive) | > 10 µM (inactive) | > 100 µM (inactive) | > 100 µM (inactive) | > 100 µM (inactive) | 24 µM (inactive)
N#Cc1c(-c2ccccc2)cc(Nc2ccc(F)cc2)n2c1nc1ccccc12 | 1.72 µM (inactive) | < 0.01 µM (active) | 7.03 µM (inactive) | 4.08 µM (inactive) | 2.66 µM (inactive) | 3.52 µM (inactive) | 3.12 µM (inactive) | 2.83 µM (inactive) | 1.95 µM (inactive) | 2.36 µM (inactive) | 2.54 µM (inactive) | 2.26 µM (inactive) | 3.14 µM (inactive) | 1.73 µM (inactive) | 2.02 µM (inactive) | > 100 µM (inactive) | 2.78 µM (inactive) | 1.01 µM (active) | 2.43 µM (inactive) | 3.89 µM (inactive)
O=C1CCCc2ccc3c(c21)CC1(Cc2cc4c(cc2C1)CCCC4)C3 | 20.7 µM (inactive) | 30.4 µM (inactive) | 14.8 µM (inactive) | 16 µM (inactive) | 15.6 µM (inactive) | 22.2 µM (inactive) | 19.7 µM (inactive) | 24.7 µM (inactive) | 17.3 µM (inactive) | 22.8 µM (inactive) | 18.5 µM (inactive) | 18.4 µM (inactive) | 26.6 µM (inactive) | 15.7 µM (inactive) | 19.1 µM (inactive) | 6.05 µM (inactive) | 18.1 µM (inactive) | 12.9 µM (inactive) | 43.9 µM (inactive) | 6.98 µM (inactive)
CN(C)C(=S)/N=c1\ssc(=S)n1Cc1ccccc1 | 0.203 µM (active) | 0.193 µM (active) | 0.569 µM (active) | 0.201 µM (active) | 0.172 µM (active) | 0.24 µM (active) | 0.51 µM (active) | 0.546 µM (active) | 0.063 µM (active) | 0.34 µM (active) | 0.43 µM (active) | 0.308 µM (active) | 1.08 µM (active) | 0.667 µM (active) | 0.867 µM (active) | 0.338 µM (active) | 0.361 µM (active) | 0.342 µM (active) | 0.434 µM (active) | 0.129 µM (active)
